Several values for one entry are separate records, joined by “and”; a condition that tells them apart may be missing. Identical values can stand only once. Like-named read-outs stand apart in the source and are kept apart here.
How the values were obtained:
late blight fungus = type: in vivo, tomato (variety: Ponderosa); conditions: for synergistic effect in mixed use with Compound No. 1: within the same concentration range as the preceding table
downy mildew [1] = experiment: Cucumber downy mildew treating effect test (Test Example 1, Compound No. 1 with other fungicides); type: in vivo, cucumber (variety: Sagami Hanjiro)
Protocol: A cucumber (variety: Sagami Hanjiro) was cultivated in a plastic pot of 7.5 cm in diameter, and when it reached the bifoliate stage, a spore suspension of downy mildew was spray-inoculated thereto. Each of the liquids to be tested was sprayed thereto 17 hours thereafter using a spray gun at a ratio of 5 ml per seedling. In addition, the above-described Compound No. 1 liquid was also sprayed in the same manner. After keeping in a constant temperature chamber at 22 to 24° C. for 6 days, area of the lesion on the first leaf was inspected to calculate lesion area ratio (%), with the results shown in Table 3 and Table 4. In addition, each of the theoretical values of the infection ratio calculated based on the Colby's formula is also shown by the parentheses in Table 3 and Table 4.

downy mildew [2] = experiment: Cucumber downy mildew treating effect test (Reference Example, Compound No. 1 with spreaders); type: in vivo, cucumber (variety: Sagami Hanjiro); conditions: no mixed use of spreader
Protocol: An effect reinforcing component was dispersed in water to a concentration of from 1,000 times to 10,000 times, and then the above-described Compound No. […] In this case, the spreaders shown in Table 1 and Table 2 were used as the effect reinforcing components. In addition, for the sake of comparison, a predetermined concentration (63 ppm or 16 ppm) of Compound No. 1 liquid containing no effect reinforcing component was prepared in the same manner as the above-described water dispersion.
A cucumber (variety: Sagami Hanjiro) was cultivated in a plastic pot of 7.5 cm in diameter, and when it reached the bifoliate stage, a spore suspension of downy mildew was spray-inoculated thereto. Each of the water dispersions to be tested was sprayed thereto 17 hours thereafter using a spray gun at a ratio of 5 ml per seedling. In addition, the above-described Compound No. 1 liquid was also sprayed in the same manner. After keeping in a constant temperature chamber at 22 to 24° C. for 6 days, area of the lesion on the first leaf was inspected to calculate lesion area ratio (%), with the results shown in Table 1 and Table 2. In addition, each of the theoretical values of the infection ratio calculated based on the Colby's formula was also shown by the parentheses in Table 1 and Table 2. In this connection, results similar to those which are shown in Table 1 and Table 2 are obtained within the same concentration range when a liquid comprising the Compound No. 1 and at least one selected from the group consisting of Dimethomorph, Chlorothalonil, a copper compound, Iprovalicarb, Zoxamide, phosphorous acid or a salt thereof, Fluazinam, Cyazofamid, Flumorph, Benthiavalicarb-isopropyl, Ethaboxam, Methalaxyl-M and Benalaxyl-M was used instead of the Compound No. 1 liquid.

[3] = other fungicide alone 100 g/ha, 300 liters per hectare
[4] = other fungicide alone 250 g/ha, 300 liters per hectare
[5] = other fungicide alone 200 ppm (Compound No. 1 0 ppm)
[6] = other fungicide alone 25 g/ha, 300 liters per hectare
[7] = other fungicide alone 250 ppm (Compound No. 1 0 ppm)

Work on O=[N+]([O-])c1cc(C(F)(F)F)c(Cl)c([N+](=O)[O-])c1Nc1ncc(C(F)(F)F)cc1Cl [Fluazinam] yielded a lesion area ratio (late blight fungus; [3]) of 37.5% and a lesion area ratio (late blight fungus; [4]) of 37.5%.
With CCNc1nc(CC)c(C(=O)NC(C#N)c2cccs2)s1 (centres unmarked) [Ethaboxam] the lesion area ratio (downy mildew [1]; [5]) was 30%, the lesion area ratio (late blight fungus; [6]) was 6.25% and the lesion area ratio (late blight fungus; [3]) was 6.25%.
In the case of N#Cc1c(Cl)c(Cl)c(Cl)c(C#N)c1Cl [Chlorothalonil], the lesion area ratio (downy mildew [1]; other fungicide alone 500 ppm (Compound No. 1 0 ppm)) is reported as 100%, the lesion area ratio (late blight fungus; other fungicide alone 13 ppm, sprayed at 10 ml per seedling) is reported as 100% and the lesion area ratio (late blight fungus; other fungicide alone 25 ppm, sprayed at 10 ml per seedling) is reported as 17%. The lesion area ratio (late blight fungus; [3]) was 18.8% and the lesion area ratio (late blight fungus; [4]) was 25.0%.
Cc1c(Br)c2ccc(F)cc2n1S(=O)(=O)c1ncn(S(=O)(=O)N(C)C)n1 [Compound No. 1, 1-(N,N-dimethylsulfamoyl)-3-(3-bromo-6-fluoro-2-methylindol-1-yl)sulfonyl-1,2,4-triazole] was tested, and the lesion area ratio (downy mildew [2]; Compound No. 1 4 ppm) was 30%, the lesion area ratio (downy mildew [2]; Compound No. 1 16 ppm) was 60% and the lesion area ratio (downy mildew [2]; Compound No. 1 63 ppm) was 40%. It also gave a lesion area ratio (downy mildew [1]; Compound No. 1 4 ppm, no mixed use of other fungicide) of 30%, a lesion area ratio (downy mildew [1]; Compound No. 1 16 ppm, no mixed use of other fungicide) of 60% and a lesion area ratio (downy mildew [1]; Compound No. 1 63 ppm, no mixed use of other fungicide) of 40%. The lesion area ratio (late blight fungus; Compound No. 1 1 ppm, no mixed use of other fungicide, sprayed at 10 ml per seedling) was 83%, the lesion area ratio (late blight fungus; Compound No. 1 alone 25 g/ha, 300 liters per hectare) was 62.5% and 37.5% and the lesion area ratio (late blight fungus; Compound No. 1 alone 250 g/ha, 300 liters per hectare) was 31.3% and 25.0% and 37.5%.
For COc1ccc(/C(=C\C(=O)N2CCOCC2)c2ccc(F)cc2)cc1OC [Flumorph], the lesion area ratio (late blight fungus; [3]) was 31.3% and the lesion area ratio (late blight fungus; [4]) was 12.5%.
For COCC(=O)N(c1c(C)cccc1C)[C@H](C)C(=O)OC [Metalaxyl-M], the “synergistic effect in mixed use with Compound No. 1” value (late blight fungus) was “Synergistic effect can also be obtained”.
Compound COc1ccc(C(=CC(=O)N2CCOCC2)c2ccc(Cl)cc2)cc1OC [Dimethomorph] has a lesion area ratio (downy mildew [1]; [7]) of 100%, a lesion area ratio (downy mildew [1]; other fungicide alone 350 ppm (Compound No. 1 0 ppm)) of 100% and a lesion area ratio (late blight fungus; [6]) of 87.5%. It also gave a lesion area ratio (late blight fungus; [3]) of 75.0% and a lesion area ratio (late blight fungus; [4]) of 62.5%.
O=[PH]([O-])[O-].[Na+].[Na+] [Sodium phosphite, sodium phosphite (Na2HPO3)] was tested, and the lesion area ratio (late blight fungus; other fungicide alone 500 g/ha, 300 liters per hectare) was 75.0%, the lesion area ratio (late blight fungus; other fungicide alone 1000 g/ha, 300 liters per hectare) was 75.0% and the lesion area ratio (late blight fungus; other fungicide alone 1500 g/ha, 300 liters per hectare) was 50.0%.
Compound [Cl-].[Cu+2].[Cu+2].[OH-].[OH-].[OH-] [Basic copper chloride, basic copper chloride] has a lesion area ratio (downy mildew [1]; other fungicide alone 1,000 ppm (Compound No. 1 0 ppm)) of 100%, a lesion area ratio (late blight fungus; other fungicide alone 500 ppm, sprayed at 10 ml per seedling) of 100% and a lesion area ratio (late blight fungus; other fungicide alone 1,000 ppm, sprayed at 10 ml per seedling) of 100%.
In the case of O=[PH]([O-])[O-].[K+].[K+] [Potassium phosphite, potassium phosphite (K2HPO3)], the lesion area ratio (downy mildew [1]; [7]) is reported as 100%.
CCCOC(=O)NCCCN(C)C [Propamocarb] was tested, and the lesion area ratio (downy mildew [1]; other fungicide alone 1,600 ppm (Compound No. 1 0 ppm)) was 60%, the lesion area ratio (late blight fungus; [3]) was 87.5% and the lesion area ratio (late blight fungus; other fungicide alone 400 g/ha, 300 liters per hectare) was 75.0%.
For CCC(C)(NC(=O)c1cc(Cl)c(C)c(Cl)c1)C(=O)CCl (centres unmarked) [Zoxamide], the lesion area ratio (downy mildew [1]; [5]) was 100%, the lesion area ratio (late blight fungus; [6]) was 43.8% and the lesion area ratio (late blight fungus; [3]) was 50.0%.
In the case of Cc1ccc(-c2c(Cl)nc(C#N)n2S(=O)(=O)N(C)C)cc1 [Cyazofamid], the lesion area ratio (late blight fungus; other fungicide alone 10 g/ha, 300 liters per hectare) is reported as 25.0% and the lesion area ratio (late blight fungus; other fungicide alone 40 g/ha, 300 liters per hectare) is reported as 18.8%.
CC(C)OC(=O)N[C@H](C(=O)N[C@H](C)c1nc2ccc(F)cc2s1)C(C)C [Benthiavalicarb-isopropyl] was tested, and the “synergistic effect in mixed use with Compound No. 1” value (late blight fungus) was “Synergistic effect can also be obtained”.
Cc1ccc(C(C)NC(=O)[C@@H](NC(=O)OC(C)C)C(C)C)cc1 (some centres unmarked) [Iprovalicarb] gave a lesion area ratio (downy mildew [1]; [7]) of 100%, a lesion area ratio (late blight fungus; [6]) of 25.0% and a lesion area ratio (late blight fungus; [3]) of 6.25%. The lesion area ratio (late blight fungus; [4]) was 6.25%.
Compound COC(=O)[C@@H](C)N(C(=O)Cc1ccccc1)c1c(C)cccc1C [Benalaxyl-M] has a lesion area ratio (late blight fungus; [6]) of 50.0%, a lesion area ratio (late blight fungus; [3]) of 25.0% and a lesion area ratio (late blight fungus; [4]) of 6.25%.
For [Cu+2].[OH-].[OH-] [Cupric hydroxide, cupric hydroxide], the lesion area ratio (late blight fungus; other fungicide alone 200 g/ha, 300 liters per hectare) was 50.0%, the lesion area ratio (late blight fungus; other fungicide alone 800 g/ha, 300 liters per hectare) was 43.3% and the lesion area ratio (late blight fungus; other fungicide alone 2000 g/ha, 300 liters per hectare) was 43.8%.

Reference: patent US8802708B2 (priority 2004, dated 2014)
